{"source": "patent US20120115877A1", "about": "“Facially Amphiphilic Compounds, Compositions, And Uses Thereof In Treating Cancer” (POLYMEDIX, INC., priority 2010, published 2012)", "assay_type_in_all_cases": "cell-based, human", "conditions_in_all_cases": "10 μM", "key": {"[1]": {"test_system": "U251", "experiment": "NCI-60 screen, CNS Cancer", "procedure": "(§1) Several compounds were tested at single concentrations (10 μM) against 59 different human tumor cell lines, representing leukemia, melanoma and cancers of the lung, colon, brain, ovary, breast, prostate, and kidney (see, Table 3). The human tumor cell lines of the cancer screening panel were grown in RPMI 1640 medium containing 5% fetal bovine serum and 2 mM L-glutamine. For a typical screening experiment, cells were inoculated into 96 well microtiter plates in 100 μL at plating densities ranging from 5,000 to 40,000 cells/well depending on the doubling time of individual cell lines. After cell inoculation, the microtiter plates were incubated at 37° C., 5% CO2, 95% air and 100% relative humidity for 24 hours prior to addition of the compounds.\n(§2) After 24 hours, two plates of each cell line were fixed in situ with TCA, to represent a measurement of the cell population for each cell line at the time of drug addition (Tz). Compounds were solubilized in dimethyl sulfoxide at 400-fold the desired final maximum test concentration and stored frozen prior to use. At the time of drug addition, an aliquot of frozen concentrate was thawed and diluted to twice the desired final maximum test concentration with complete medium containing 50 μg/ml gentamicin. Additional four, 10-fold or ½ log serial dilutions were made to provide a total of five compound concentrations plus control. Aliquots of 100 μl of these different drug dilutions were added to the appropriate microtiter wells already containing 100 μl of medium, resulting in the required final compound concentrations.\n(§3) Following drug addition, the plates were incubated for an additional 48 hours at 37° C., 5% CO2, 95% air, and 100% relative humidity. For adherent cells, the assay was terminated by the addition of cold TCA. Cells were fixed in situ by the gentle addition of 50 μl of cold 50% (w/v) TCA (final concentration, 10% TCA) and incubated for 60 minutes at 4° C. The supernatant was discarded, and the plates were washed five times with tap water and air dried. Sulforhodamine B (SRB) solution (100 μl) at 0.4% (w/v) in 1% acetic acid was added to each well, and plates were incubated for 10 minutes at room temperature. After staining, unbound dye was removed by washing five times with 1% acetic acid and the plates were air dried. Bound stain was subsequently solubilized with 10 mM trizma base, and the absorbance was read on an automated plate reader at a wavelength of 515 nm. For suspension cells, the methodology was the same except that the assay was terminated by fixing settled cells at the bottom of the wells by gently adding 50 μl of 80% TCA (final concentration, 16% TCA). Using the seven absorbance measurements (time zero, (Tz), control growth, (C), and test growth in the presence of drug at the five concentration levels (Ti)), the percentage growth was calculated at each of the compound concentrations levels. Percentage growth inhibition was calculated as:\n(§4) [(Ti−Tz)/(C−Tz)]×100 for concentrations for which Ti>/=Tz\n(§5) [(Ti−Tz)/Tz]×100 for concentrations for which Ti<Tz.\n(§6) Three dose response parameters were calculated for each compound. Growth inhibition of 50% (GI50) was calculated from [(Ti−Tz)/(C−Tz)]×100=50, which is the compound concentration resulting in a 50% reduction in the net protein increase (as measured by SRB staining) in control cells during the compound incubation. The compound concentration resulting in total growth inhibition (TGI) was calculated from Ti=Tz. The LC50 (concentration of compound resulting in a 50% reduction in the measured protein at the end of the compound treatment as compared to that at the beginning) indicating a net loss of cells following treatment was calculated from [(Ti−Tz)/Tz]×100=−50. Values were calculated for each of these three parameters if the level of activity was reached; however, if the effect was not reached or was exceeded, the value for that parameter was expressed as greater or less than the maximum or minimum concentration tested."}, "[2]": {"test_system": "SNB-19", "experiment": "NCI-60 screen, CNS Cancer", "procedure": "as §1, §2, §3, §4, §5, §6"}, "[3]": {"test_system": "SF-295", "experiment": "NCI-60 screen, CNS Cancer", "procedure": "as §1, §2, §3, §4, §5, §6"}, "[4]": {"test_system": "SF-268", "experiment": "NCI-60 screen, CNS Cancer", "procedure": "as §1, §2, §3, §4, §5, §6"}, "[5]": {"test_system": "SF-539", "experiment": "NCI-60 screen, CNS Cancer", "procedure": "as §1, §2, §3, §4, §5, §6"}, "[6]": {"test_system": "SNB-75", "experiment": "NCI-60 screen, CNS Cancer", "procedure": "as §1, §2, §3, §4, §5, §6"}, "[7]": {"test_system": "NCI-H23", "experiment": "NCI-60 screen, Non-Small Cell Lung Cancer", "procedure": "as §1, §2, §3, §4, §5, §6"}, "[8]": {"test_system": "NCI-H460", "experiment": "NCI-60 screen, Non-Small Cell Lung Cancer", "procedure": "as §1, §2, §3, §4, §5, §6"}, "[9]": {"test_system": "HOP-62", "experiment": "NCI-60 screen, Non-Small Cell Lung Cancer", "procedure": "as §1, §2, §3, §4, §5, §6"}, "[10]": {"test_system": "EKVX", "experiment": "NCI-60 screen, Non-Small Cell Lung Cancer", "procedure": "as §1, §2, §3, §4, §5, §6"}, "[11]": {"test_system": "NCI-H226", "experiment": "NCI-60 screen, Non-Small Cell Lung Cancer", "procedure": "as §1, §2, §3, §4, §5, §6"}, "[12]": {"test_system": "A549/ATCC", "experiment": "NCI-60 screen, Non-Small Cell Lung Cancer", "procedure": "as §1, §2, §3, §4, §5, §6"}, "[13]": {"test_system": "HOP-92", "experiment": "NCI-60 screen, Non-Small Cell Lung Cancer", "procedure": "as §1, §2, §3, §4, §5, §6"}, "[14]": {"test_system": "NCI-H322M", "experiment": "NCI-60 screen, Non-Small Cell Lung Cancer", "procedure": "as §1, §2, §3, §4, §5, §6"}, "[15]": {"test_system": "NCI-H522", "experiment": "NCI-60 screen, Non-Small Cell Lung Cancer", "procedure": "as §1, §2, §3, §4, §5, §6"}, "[16]": {"test_system": "UACC-62", "experiment": "NCI-60 screen, Melanoma", "procedure": "as §1, §2, §3, §4, §5, §6"}, "[17]": {"test_system": "MALME-3M", "experiment": "NCI-60 screen, Melanoma", "procedure": "as §1, §2, §3, §4, §5, §6"}, "[18]": {"test_system": "SK-MEL-5", "experiment": "NCI-60 screen, Melanoma", "procedure": "as §1, §2, §3, §4, §5, §6"}, "[19]": {"test_system": "SK-MEL-28", "experiment": "NCI-60 screen, Melanoma", "procedure": "as §1, §2, §3, §4, §5, §6"}, "[20]": {"test_system": "NCI/ADR-RES", "experiment": "NCI-60 screen, Ovarian Cancer", "procedure": "as §1, §2, §3, §4, §5, §6"}, "[21]": {"test_system": "SK-OV-3", "experiment": "NCI-60 screen, Ovarian Cancer", "procedure": "as §1, §2, §3, §4, §5, §6"}, "[22]": {"test_system": "OVCAR-8", "experiment": "NCI-60 screen, Ovarian Cancer", "procedure": "as §1, §2, §3, §4, §5, §6"}, "[23]": {"test_system": "OVCAR-4", "experiment": "NCI-60 screen, Ovarian Cancer", "procedure": "as §1, §2, §3, §4, §5, §6"}, "[24]": {"test_system": "OVCAR-5", "experiment": "NCI-60 screen, Ovarian Cancer", "procedure": "as §1, §2, §3, §4, §5, §6"}, "[25]": {"test_system": "OVCAR-3", "experiment": "NCI-60 screen, Ovarian Cancer", "procedure": "as §1, §2, §3, §4, §5, §6"}, "[26]": {"test_system": "IGROV1", "experiment": "NCI-60 screen, Ovarian Cancer", "procedure": "as §1, §2, §3, §4, §5, §6"}}, "data": [{"smiles": "NCCCc1cccc(-c2ccc3sc4ccc(-c5cccc(CCCN)c5)cc4c3c2)c1", "note": "[Compound D]", "values": [{"measurement": "Percent Growth", "setting": "[1]", "value": 59.7, "unit": "%"}, {"measurement": "Percent Growth", "setting": "[2]", "value": 79.89, "unit": "%"}, {"measurement": "Percent Growth", "setting": "[3]", "value": 87.17, "unit": "%"}, {"measurement": "Percent Growth", "setting": "[4]", "value": 73.4, "unit": "%"}, {"measurement": "Percent Growth", "setting": "[5]", "value": 98.34, "unit": "%"}, {"measurement": "Percent Growth", "setting": "[6]", "value": 71.15, "unit": "%"}, {"measurement": "Percent Growth", "setting": "[7]", "value": 100.6, "unit": "%"}, {"measurement": "Percent Growth", "setting": "[8]", "value": 69.57, "unit": "%"}, {"measurement": "Percent Growth", "setting": "[9]", "value": 90.64, "unit": "%"}, {"measurement": "Percent Growth", "setting": "[10]", "value": 98.18, "unit": "%"}, {"measurement": "Percent Growth", "setting": "[11]", "value": 110.1, "unit": "%"}, {"measurement": "Percent Growth", "setting": "[12]", "value": 72.71, "unit": "%"}, {"measurement": "Percent Growth", "setting": "[13]", "value": 78.26, "unit": "%"}, {"measurement": "Percent Growth", "setting": "[14]", "value": 107, "unit": "%"}, {"measurement": "Percent Growth", "setting": "[15]", "value": 10.75, "unit": "%"}, {"measurement": "Percent Growth", "setting": "[16]", "value": 88.44, "unit": "%"}, {"measurement": "Percent Growth", "setting": "[17]", "value": 134.1, "unit": "%"}, {"measurement": "Percent Growth", "setting": "[18]", "value": 100.8, "unit": "%"}, {"measurement": "Percent Growth", "setting": "[19]", "value": 99.21, "unit": "%"}, {"measurement": "Percent Growth", "setting": "[20]", "value": 95.39, "unit": "%"}, {"measurement": "Percent Growth", "setting": "[21]", "value": 103.1, "unit": "%"}, {"measurement": "Percent Growth", "setting": "[22]", "value": 83.89, "unit": "%"}, {"measurement": "Percent Growth", "setting": "[23]", "value": 59.85, "unit": "%"}, {"measurement": "Percent Growth", "setting": "[24]", "value": 96.93, "unit": "%"}, {"measurement": "Percent Growth", "setting": "[25]", "value": 62.71, "unit": "%"}, {"measurement": "Percent Growth", "setting": "[26]", "value": 80.28, "unit": "%"}]}]}
